By melting point is commonly meant the temperature, or range, at which the solid turns liquid.

One data set has as its target T1, Human CCR3 (Homo sapiens, UniProt P51677).
T1 construct: The cloned CCR3 cDNA was constructed with pcDNA3 vector and transfected into a K562 cell line; expressed in transfected cells
T1 sequence (P51677 1-355): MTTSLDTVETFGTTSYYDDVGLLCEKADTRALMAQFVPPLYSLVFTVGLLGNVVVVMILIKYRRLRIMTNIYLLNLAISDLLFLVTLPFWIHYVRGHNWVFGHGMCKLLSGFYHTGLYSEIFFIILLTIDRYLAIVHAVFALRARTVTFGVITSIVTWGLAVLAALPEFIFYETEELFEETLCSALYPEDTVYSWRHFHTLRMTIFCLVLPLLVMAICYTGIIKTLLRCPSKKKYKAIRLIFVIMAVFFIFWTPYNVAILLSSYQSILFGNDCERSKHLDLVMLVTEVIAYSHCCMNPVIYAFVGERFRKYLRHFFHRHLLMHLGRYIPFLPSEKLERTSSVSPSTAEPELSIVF
As to the kind of experiment: Receptor binding assay (RBA), [125I]-eotaxin on human CCR3-transformed K562 cells. Particulars: compounds of about 40 to 90% purity, read-out: Activity grade CCR3. The procedure:
[Determination of IC50 Values of Compounds in Receptor Binding Assay]
• Human CCR3-transformed K562 cells were used. The cloned CCR3 cDNA was constructed with pcDNA3 vector and transfected into a K562 cell line. The human CCR3-transformed K562 cells were maintained in RPMI-1640 (Cat.#22400-089, Life Technologies) supplemented with 10% FCS (Cat.#A-1115-L, Hyclone), 55 μM 2-mercaptoethanol (Cat.#21985-023, Life Technologies), 1 mM sodium pyruvate (Cat.#11360-070, Life Technologies), 100 units/ml of penicillin G and 100 μg/ml of streptomycin (Cat.#15140-122, Life Technologies), and 0.4 mg/ml of Geneticin (Cat.#10131-035, Life Technologies) (hereinafter called “culture medium”). Before the receptor binding assay, cells were pretreated with 5 mM sodium butyrate (Cat.#193-01522, Wako)-containing the culture medium (2×10^5 cells/ml) for 20-24 hours to increase the expression of CCR3. (2) Receptor Binding Assay • Butyrate-pretreated cells, suspended in binding buffer (25 mM HEPES pH 7.6, 1 mM CaCl2, 5 mM MgCl2, 0.5% BSA, 0.1% NaN3) at a cell density of 2×10^6 cells/ml, were added into 60 μl/well in the 96-well round bottom polypropylene plate (Cat.#3365, Costar). Compounds, diluted with the binding buffer (4-times higher concentration of the final concentration), were added into 30 μl/well in the polypropylene plate. [^125I]-labeled human eotaxin (Cat.#IM290, Amersham Pharmacia Biotech), diluted with the binding buffer at the concentration of 0.4 nM (final concentration; 0.1 nM), was added into 30 μl/well in the polypropylene plate. Total 120 μl/well of binding reaction mixture (60 μl/well of cell suspension, 30 μl/well of compound solution, and 30 μl/well of [^125I]-labeled eotaxin) were incubated in the polypropylene plate for 1 hour at room temperature after the incubation, 100 μl/well of the reaction mixture was transferred to a filtration plate (Cat.#MAFB-N0B, Millipore), and washed with the washing buffer (25 mM HEPES pH 7.6, 1 mM CaCl2, 5 mM MgCl2, 0.5% BSA, 0.1% NaN3, 0.5 M NaCl) twice. The 96-well filtration plate was pretreated with 100 μl/well of 0.5% polyethylenimine (Cat.#P-3143, Sigma) for 2-4 hours at room temperature and washed with the washing buffer twice before use. The non-specific binding was determined by parallel incubation in the presence of 500 nM of non-labeled eotaxin (Cat.#23209, Genzyme Techne). The radioactivities remained on the filter were measured by liquid scintillation counter (TopCount™, Packard) after an addition of 45 μl/well of scintillant (Microscint20, Cat.#6013621, Packard). The inhibition percent at each concentration of compound was calculated, and IC50 values were determined from the inhibition curve. [Determination of IC50 Values of Compounds in Calcium Mobilization Assay] (1) Cell • Human CCR3-transformed K562 cells were used. The human CCR3-transformed K562 cells were maintained in RPMI-1640 supplemented with 10% FCS, 55 μM 2-mercaptoethanol (Cat.#21985-023, Life Technologies), 1 mM sodium pyruvate, 100 units/ml of penicillin G and 100 μg/ml of streptomycin, and 0.4 mg/ml of Geneticin. Before the calcium mobilization assay, cells were pretreated with 5 mM sodium butyrate-containing the culture medium (2×10^5 cells/ml) for 20-24 hours to increase the expression of CCR3. (2) Calcium Mobilization Assay • Butyrate-pretreated cells were loaded with Fluo-3AM (Cat.#F-1242, Molecular Probes) in loading buffer (Hanks' solution Cat.#05906 Nissui, 20 mM HEPES pH 7.6, 0.1% BSA, 1 mM probenecid Cat.#P-8761 Sigma, 1 μM Fluo-3AM, 0.01% pluronic F-127 Cat.#P-6866 Molecular Probes) at a cell density of 1×10^7 cells/ml. Then, cells were washed with calcium assay buffer (Hanks' solution Cat.#05906 Nissui, 20 mM HEPES pH 7.6, 0.1% BSA, 1 mM Probenecid Cat.#P-8761 Sigma). The cell suspension (3.3×10^6 cells/ml) was added into 60 μl/well in the 96-well clear bottom black plate (Cat.#3904, Costar). […]

The structures appear in SMILES notation. Where a name gives a salt, the structure may show the parent alone.

Regarding `N#Cc1ccc(Oc2cc(Cl)cc(Cl)c2)c(S(=O)(=O)N[C@H]2CN3CCC2CC3)c1` [Example 1-1, N—(R)-(+)-(1-aza-bicyclo[2.2.2]oct-3-yl)-5-cyano-2-(3,5-dichloro-phenoxy)-benzenesulfonamide], the IC50 on Human CCR3 was below 100 nM.
Consider `CN(C)CCN(CCN1C(=O)CCC1=O)S(=O)(=O)c1cc(C#N)ccc1Oc1cc(Cl)cc(Cl)c1` [Example 1-2, 5-cyano-2-(3,5-dichloro-phenoxy)-N-(2-dimethylamino-ethyl)-N-[2-(2,5-dioxo-pyrrolidin-1-yl)-ethyl]-benzenesulfonamide], for which the IC50 on Human CCR3 was below 100 nM.
Still for that read-out and setting: next, `N#Cc1ccc(Oc2cc(Cl)cc(Cl)c2)c(S(=O)(=O)N2CCN[C@@H](Cc3c[nH]c4ccccc34)C2)c1` [Example 1-3, 4-(3,5-dichloro-phenoxy)-3-[(3S)-(1H-indol-3-ylmethyl)-piperazine-1-sulfonyl]-benzonitrile]: below 100 nM.
Same read-out and setting: the figure for `N#Cc1ccc(Oc2cc(Cl)cc(Cl)c2)c(S(=O)(=O)N2CCNCC2Cn2cncn2)c1` (stereo not shown) [Example 1-4, 4-(3,5-dichlorophenoxy)-3-{[2-(1H-1,2,4-triazol-1-ylmethyl)-1-piperazinyl]sulfonyl}benzonitrile hydrochloride] is below 100 nM.
Molecule `N#Cc1ccc(Oc2cc(Cl)cc(Cl)c2)c(S(=O)(=O)N2CCCCC2)c1` [Example 1-5] showed a melting point of 171 to 172 °C. Also, the IC50 on Human CCR3 was above 500 nM.
Consider `N#Cc1ccc(Oc2cc(Cl)cc(Cl)c2)c(S(=O)(=O)N2CC3CCN(Cc4ccccc4)C3C2)c1` (stereo not shown) [Example 1-6], for which, at Human CCR3, the IC50 was below 100 nM.
Regarding `CS(=O)(=O)NCC1CN(S(=O)(=O)c2cc(C#N)ccc2Oc2cc(Cl)cc(Cl)c2)CCN1` (stereo not shown) [Example 1-7], the IC50 at Human CCR3 is below 100 nM.
The same measure, in the same setting: next, `CC(=O)NCC1CN(S(=O)(=O)c2cc(C#N)ccc2Oc2cc(Cl)cc(Cl)c2)CCN1` (stereo not shown) [Example 1-8]: below 100 nM.
Still for that read-out and setting: next, `CS(=O)(=O)NCC1CNCCN1S(=O)(=O)c1cc(C#N)ccc1Oc1cc(Cl)cc(Cl)c1` (stereo not shown) [Example 1-9]: below 100 nM; `CC(=O)NCC1CNCCN1S(=O)(=O)c1cc(C#N)ccc1Oc1cc(Cl)cc(Cl)c1` (stereo not shown) [Example 1-10]: below 100 nM.
The molecule `N#Cc1ccc(Oc2cc(Cl)cc(Cl)c2)c(S(=O)(=O)N2CCC(N3C[C@H](O)[C@@H](O)C3)CC2)c1` [Example 1-11] displayed a melting point of 137 to 139 °C. In addition, the IC50 on Human CCR3 lay within 100 to 500 nM.
For `COC(=O)C1CN(S(=O)(=O)c2cc(C#N)ccc2Oc2cc(Cl)cc(Cl)c2)CCCN1` (stereo not shown) [Example 1-12], the IC50 on Human CCR3 fell in the range of 100 to 500 nM.
With `COC(=O)[C@@H]1C[C@H](N2CCCC2)CN1S(=O)(=O)c1cc(C#N)ccc1Oc1cc(Cl)cc(Cl)c1` [Example 1-13], the IC50 at Human CCR3 was 100 to 500 nM.
With `N#Cc1ccc(Oc2cc(Cl)cc(Cl)c2)c(S(=O)(=O)N2CC[C@H](NCCO)C2)c1` [Example 1-16], the melting point lay in the range of 155 to 156 °C. Also, the IC50 on Human CCR3 is below 100 nM.
For the molecule `COC(=O)C1CNCCCN1S(=O)(=O)c1cc(C#N)ccc1Oc1cc(Cl)cc(Cl)c1` (stereo not shown) [Example 1-22], the IC50 at Human CCR3 is below 100 nM.
`N#Cc1ccc(Oc2cc(Cl)cc(Cl)c2)c(S(=O)(=O)N2CCNC[C@@H]2Cc2c[nH]c3ccccc23)c1` [Example 1-26] had a melting point of 116 to 117 °C. On Human CCR3, the IC50 was below 100 nM.
Take `N#Cc1ccc(Oc2cc(Cl)cc(Cl)c2)c(S(=O)(=O)N2CCNCC2CN2C(=O)CCC2=O)c1` (stereo not shown) [Example 1-27]: the IC50 on Human CCR3 was below 100 nM.
On to `CS(=O)(=O)NCC1CN(S(=O)(=O)c2cc(C#N)ccc2Oc2cc(Cl)cc(Cl)c2)CCCN1` (stereo not shown) [Example 1-28], for which the IC50 at Human CCR3 was below 100 nM.
As for `CS(=O)(=O)NCC1CNCCCN1S(=O)(=O)c1cc(C#N)ccc1Oc1cc(Cl)cc(Cl)c1.Cl` (stereo not shown) [Example 1-29], the melting point is 183 to 184 °C. For the same molecule, at Human CCR3, the IC50 was below 100 nM.
Regarding `CC(=O)c1ccc(Oc2cc(Cl)cc(Cl)c2)c(S(=O)(=O)N2CCNCC2)c1` [Example 1-31], the melting point was in the range of 169 to 170 °C. The IC50 at Human CCR3 was below 100 nM.
For the molecule `N#Cc1ccc(Oc2cc(Cl)cc(Cl)c2)c(S(=O)(=O)N[C@@H]2CN3CCC2CC3)c1` [Example 1-32], the IC50 on Human CCR3 was below 100 nM.
Consider `N#Cc1ccc(Oc2cc(Cl)cc(Cl)c2)c(S(=O)(=O)N2CCC(N3CCC[C@H]3C(=O)O)CC2)c1` [Example 1-33], for which the melting point is 224 to 225 °C. Besides, the IC50 on Human CCR3 is below 100 nM.
The like results for `CC(C)(O)[C@@H]1CCCN1C1CCN(S(=O)(=O)c2cc(C#N)ccc2Oc2cc(Cl)cc(Cl)c2)CC1` [Example 1-34] were, in that order, 103 °C and below 100 nM.
With `N#Cc1ccc(Oc2cc(Cl)cc(Cl)c2)c(S(=O)(=O)N2CCCCC2CN2CCC(O)C2)c1` (stereo not shown) [Example 1-35], the IC50 on Human CCR3 lay in the range of 100 to 500 nM.
On the same count and under the same terms, next, `N#Cc1ccc(Oc2cc(Cl)cc(Cl)c2)c(S(=O)(=O)N2CCNC(Cn3ncnn3)C2)c1` (stereo not shown) [Example 1-36]: below 100 nM.
Regarding `Cl.N#Cc1ccc(Oc2cc(Cl)cc(Cl)c2)c(S(=O)(=O)N2CCNC(Cn3cncn3)C2)c1` (stereo not shown) [Example 1-37], the melting point was 184 to 185 °C (dec.). The IC50 at Human CCR3 is below 100 nM.
For the molecule `CCN1CCCN(S(=O)(=O)c2cc(C#N)ccc2Oc2cc(Cl)cc(Cl)c2)C(C(=O)OC)C1` (stereo not shown) [Example 1-39], the IC50 at Human CCR3 fell in the range of 100 to 500 nM.
`N#Cc1ccc(Oc2cc(Cl)cc(Cl)c2)c(S(=O)(=O)N(CCN2CCCC2)C2CCCC2)c1` [Example 1-42]: on Human CCR3, the IC50 fell in the range of 100 to 500 nM.
Take `N#Cc1ccc(Oc2cc(Cl)cc(Cl)c2)c(S(=O)(=O)N2CCNC(CN3C(=O)CCC3=O)C2)c1` (stereo not shown) [Example 1-43]: the melting point lay in the range of 123 to 125 °C. Further, the IC50 at Human CCR3 is below 100 nM.
The matching figures for `N#Cc1ccc(Oc2cc(Cl)cc(Cl)c2)c(S(=O)(=O)N2CCC(N3CCCC3)C(CN3C(=O)CCC3=O)C2)c1` (stereo not shown) [Example 1-44]: 121 °C and below 100 nM.
The matching figures for `N#Cc1ccc(Oc2cc(Cl)cc(Cl)c2)c(S(=O)(=O)N2CCC(N3CCC[C@H]3CO)CC2)c1` [Example 1-45]: 124 °C and below 100 nM.
For the molecule `N#Cc1ccc(Oc2cc(Cl)cc(Cl)c2)c(S(=O)(=O)N2CCC[C@H]2CN2CCC[C@H]2CO)c1` [Example 1-46], the melting point is 157 °C. In addition, on Human CCR3, the IC50 was below 100 nM.
Regarding `N#Cc1ccc(Oc2cc(Cl)cc(Cl)c2)c(S(=O)(=O)C2CCNCC2)c1` [Example 2-1, 4-(3,5-Dichloro-phenoxy)-3-(piperidine-4-sulfonyl)-benzonitrile], the IC50 on Human CCR3 is above 500 nM.

The values are drawn from US9206186B2, “2-phenoxy- and 2-phenylsulfonamide derivatives with CCR3 antagonistic activity for the treatment of inflammatory or immunological disorders” (AXIKIN PHARMACEUTICALS, INC., priority 2003, dated 2015).
